Source: patent US20020048549A1, “Radioactive transition metal nitride heterocomplex” (priority 1996, published 2002)

Experiment: Retention on Sep-Pak C18 reversed phase column (lipophilicity)
Type: physicochemical
Description: Cation exchange resin: Sep-Pak CM (COONa), illpore, anion exchange resin: Sep-Pak QMA (CONH(CH2)3N(CH3)3^+Cl), Millpore, reversed phase column: Sep-Pak C18, Millpore. The complex was retained in an amount of about 95% in the cation exchange resin, about 60% in the anion exchange resin, or 99.5% in the reversed phase column.

Q: For `COCCC[P+]1(CCCOC)CCN(CCOC)CC[P+](CCCOC)(CCCOC)[99Tc-2]12(#[N])[NH]C(C(=O)N(C)CCCN1c3ccccc3CCc3ccccc31)C[S]2` (centres unmarked) [^99mTcN-DESI], which “amount retained in the reversed phase column” value is on record?
A: 99.5%

Q: What about the “lipophilicity suggested by retention in reversed phase column” value of the same molecule?
A: high lipophilic
